How the values were obtained:
wild oat [1] = assay: Test Example 5: herbicidal effect by foliage application, plastic box (Table 20, symbol I); format: in vivo, wild oat (Avena fatua); conditions: 320 g/ha
Outline: (§1)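 Foliar spray test: emulsion formulation diluted in water to a set application rate, sprayed onto 14-day-old plants raised in diluvial soil at 25° C to 30° C under glass. Both herbicidal effect and crop effect rated visually three weeks later.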

blackgrass [2] = assay: Test Example 4: herbicidal effect by soil treatment (Table 19, symbol J); format: in vivo, blackgrass (Alopecurus myosuroides)
Outline: (§2)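 Herbicidal effect was rated 3 weeks after treatment, using the scoring criteria of an earlier test. The compound, formulated as an emulsion and diluted in water to a set herbicide amount, had been sprayed uniformly on soil over freshly sown seeds. Growth took place in a greenhouse at 25° C. to 30° C.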

lambsquarters [3] = assay: Test Example 5: herbicidal effect by foliage application, plastic box (Table 20, symbol O); format: in vivo, lambsquarters (Chenopodium album); conditions: 320 g/ha
Outline: as §1

Chinese sprangletop = assay: Test Example 3: herbicidal effect by foliage application, Wagner pot (Table 18, symbol D); format: in vivo, chinese sprangletop (Leptochloa chinensis); conditions: 320 g/ha
Outline: (§3)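 Plants were sown in alluvial soil held under 0.1–0.5 cm standing water and grown 14 days in a greenhouse at 25–30 °C. An emulsifiable formulation, water-diluted to the set dose, was then sprayed onto the foliage, and effects were scored three weeks later using previously defined criteria.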

barnyard grass [4] = assay: Test Example 5: herbicidal effect by foliage application, plastic box (Table 20, symbol H); format: in vivo, barnyard grass (Echinochloa crus-galli); conditions: 320 g/ha
Outline: as §1

wild oat [5] = assay: Test Example 4: herbicidal effect by soil treatment (Table 19, symbol I); format: in vivo, wild oat (Avena fatua)
Outline: as §2

blackgrass [6] = assay: Test Example 5: herbicidal effect by foliage application, plastic box (Table 20, symbol J); format: in vivo, blackgrass (Alopecurus myosuroides); conditions: 320 g/ha
Outline: as §1

rice flat sedge = assay: Test Example 3: herbicidal effect by foliage application, Wagner pot (Table 18, symbol E); format: in vivo, rice flat sedge (Cyperus iria); conditions: 320 g/ha
Outline: as §3

green foxtail [7] = assay: Test Example 5: herbicidal effect by foliage application, plastic box (Table 20, symbol G); format: in vivo, green foxtail (Setaria viridis); conditions: 320 g/ha
Outline: as §1

southern crabgrass [8] = assay: Test Example 5: herbicidal effect by foliage application, plastic box (Table 20, symbol F); format: in vivo, southern crabgrass (Digitaria ciliaris); conditions: 320 g/ha
Outline: as §1

lambsquarters [9] = assay: Test Example 4: herbicidal effect by soil treatment (Table 19, symbol O); format: in vivo, lambsquarters (Chenopodium album)
Outline: as §2

Italian ryegrass [10] = assay: Test Example 4: herbicidal effect by soil treatment (Table 19, symbol K); format: in vivo, Italian ryegrass (Lolium multiflorum)
Outline: as §2

redroot pigweed [11] = assay: Test Example 4: herbicidal effect by soil treatment (Table 19, symbol N); format: in vivo, redroot pigweed (Amaranthus retroflexus)
Outline: as §2

barnyard grass [12] = assay: Test Example 3: herbicidal effect by foliage application, Wagner pot (Table 18, symbol H); format: in vivo, barnyard grass (Echinochloa crus-galli); conditions: 320 g/ha
Outline: as §3

velvetleaf [13] = assay: Test Example 4: herbicidal effect by soil treatment (Table 19, symbol M); format: in vivo, velvetleaf (Abutilon theophrasti)
Outline: as §2

barnyard grass [14] = assay: Test Example 4: herbicidal effect by soil treatment (Table 19, symbol H); format: in vivo, barnyard grass (Echinochloa crus-galli)
Outline: as §2

persian speedwell [15] = assay: Test Example 4: herbicidal effect by soil treatment (Table 19, symbol R); format: in vivo, Persian speedwell (Veronica persica); conditions: 320 g/ha
Source text: (§4) [Test Example 4] Herbicidal Effect Test by Soil Treatment
(§5) Sterilized diluvial soil was placed in a plastic box having a length of 21 cm, a width of 13 cm, and a depth of 7 cm. The seeds of each of southern crabgrass, green foxtail, barnyard grass, wild oat, blackgrass, Italian ryegrass, windgrass, velvetleaf, redroot pigweed, lambsquarters, chickweed, false cleavers, persian speedwell, corn, soybean, rice, wheat, beet, and rapeseed were sowed in a spot-like manner and covered with the soil having a thickness of about 1.5 cm. Subsequently, the emulsion agent of the compound of the present invention prepared according to Formulation Example 2 was diluted with water so as to achieve a predetermined herbicide amount, and the diluted emulsion agent was uniformly applied to the surface of the soil with a small-sized spray. The plastic box was placed in a greenhouse at 25° C. to 30° C. for growth of the plants. Three weeks after the herbicide application, the effect of the herbicide on each plant was evaluated according to the criteria of Test Example 1.

chickweed [16] = assay: Test Example 4: herbicidal effect by soil treatment (Table 19, symbol P); format: in vivo, common chickweed (Stellaria media)
Source text: as §4, §5

southern crabgrass [17] = assay: Test Example 4: herbicidal effect by soil treatment (Table 19, symbol F); format: in vivo, southern crabgrass (Digitaria ciliaris)
Outline: as §2

velvetleaf [18] = assay: Test Example 5: herbicidal effect by foliage application, plastic box (Table 20, symbol M); format: in vivo, velvetleaf (Abutilon theophrasti); conditions: 320 g/ha
Outline: as §1

Italian ryegrass [19] = assay: Test Example 5: herbicidal effect by foliage application, plastic box (Table 20, symbol K); format: in vivo, Italian ryegrass (Lolium multiflorum); conditions: 320 g/ha
Outline: as §1

windgrass [20] = assay: Test Example 5: herbicidal effect by foliage application, plastic box (Table 20, symbol L); format: in vivo, windgrass (Apera spica-venti); conditions: 320 g/ha
Outline: as §1

green foxtail [21] = assay: Test Example 4: herbicidal effect by soil treatment (Table 19, symbol G); format: in vivo, green foxtail (Setaria viridis)
Outline: as §2

persian speedwell [22] = assay: Test Example 5: herbicidal effect by foliage application, plastic box (Table 20, symbol R); format: in vivo, Persian speedwell (Veronica persica); conditions: 320 g/ha
Outline: as §1

windgrass [23] = assay: Test Example 4: herbicidal effect by soil treatment (Table 19, symbol L); format: in vivo, windgrass (Apera spica-venti); conditions: amount of applied herbicide 320 g/ha
Source text: as §4, §5

chickweed [24] = assay: Test Example 5: herbicidal effect by foliage application, plastic box (Table 20, symbol P); format: in vivo, common chickweed (Stellaria media); conditions: 320 g/ha, foliage application after 14-day growth, evaluated three weeks after application
Outline: as §1

redroot pigweed [25] = assay: Test Example 5: herbicidal effect by foliage application, plastic box (Table 20, symbol N); format: in vivo, redroot pigweed (Amaranthus retroflexus); conditions: 320 g/ha, foliage application after 14-day growth, evaluated three weeks after application
Outline: as §1

[26] = foliage application, 3 weeks after application
[27] = foliage application after 14-day growth, evaluated three weeks after application
[28] = amount of applied herbicide 320 g/ha

COCCC(=O)Oc1c(C)nn(C)c(=O)c1-c1c(-c2ccc(F)cc2)sc2ccc(F)cc12 [2-003]
effect on wild oat (I) (wild oat [1]; [26]): 2 (Herbicidal rate of 20% or more and less than 40%)
herbicidal effect rating, J: blackgrass (blackgrass [2]; 320 g/ha): 3 (Herbicidal rate of 40% or more and less than 70%)
effect on lambsquarters (O) (lambsquarters [3]; [26]): 5 (Herbicidal rate of 90% or more (almost completely withered))
herbicidal effect on D (Chinese sprangletop), rating 0-5 (Chinese sprangletop): 3 (Herbicidal rate of 40% or more and less than 70%)
effect on barnyard grass (H) (barnyard grass [4]; [26]): 5 (Herbicidal rate of 90% or more (almost completely withered))
herbicidal effect rating, I: wild oat (wild oat [5]; 320 g/ha): 0 (Herbicidal rate of 5% or less (almost no effect))
effect on blackgrass (J) (blackgrass [6]; [26]): 4 (Herbicidal rate of 70% or more and less than 90%)
herbicidal effect on E (rice flat sedge), rating 0-5 (rice flat sedge): 5 (Herbicidal rate of 90% or more (almost completely withered))
effect on green foxtail (G) (green foxtail [7]; [26]): 5 (Herbicidal rate of 90% or more (almost completely withered))
effect on southern crabgrass (F) (southern crabgrass [8]; [26]): 5 (Herbicidal rate of 90% or more (almost completely withered))
herbicidal effect rating, O: lambsquarters (lambsquarters [9]; 320 g/ha): 5 (Herbicidal rate of 90% or more (almost completely withered))
herbicidal effect rating, K: Italian ryegrass (Italian ryegrass [10]; 320 g/ha): 5 (Herbicidal rate of 90% or more (almost completely withered))
herbicidal effect rating, N: redroot pigweed (redroot pigweed [11]; 320 g/ha): 5 (Herbicidal rate of 90% or more (almost completely withered))
herbicidal effect on H (barnyard grass), rating 0-5 (barnyard grass [12]): 5 (Herbicidal rate of 90% or more (almost completely withered))
herbicidal effect rating, M: velvetleaf (velvetleaf [13]; 320 g/ha): 5 (Herbicidal rate of 90% or more (almost completely withered))
herbicidal effect rating, H: barnyard grass (barnyard grass [14]; 320 g/ha): 5 (Herbicidal rate of 90% or more (almost completely withered))
herbicidal effect rating, R: persian speedwell (persian speedwell [15]): 4 (Herbicidal rate of 70% or more and less than 90%)
herbicidal effect rating, P: chickweed (chickweed [16]; 320 g/ha): 3 (Herbicidal rate of 40% or more and less than 70%)
herbicidal effect rating, F: southern crabgrass (southern crabgrass [17]; 320 g/ha): 5 (Herbicidal rate of 90% or more (almost completely withered))
effect on velvetleaf (M) (velvetleaf [18]; [26]): 5 (Herbicidal rate of 90% or more (almost completely withered))
effect on Italian ryegrass (K) (Italian ryegrass [19]; [26]): 4 (Herbicidal rate of 70% or more and less than 90%)
effect on windgrass (L) (windgrass [20]; [26]): 4 (Herbicidal rate of 70% or more and less than 90%)
herbicidal effect rating, G: green foxtail (green foxtail [21]; 320 g/ha): 5 (Herbicidal rate of 90% or more (almost completely withered))
effect on persian speedwell (R) (persian speedwell [22]; [26]): 5 (Herbicidal rate of 90% or more (almost completely withered))

Cc1nn(C)c(=O)c(-c2c(-c3ccccc3F)sc3c(Cl)cccc23)c1O [4-058]
herbicidal effect on I: wild oat (evaluation grade 0-5) (wild oat [1]; [27]): 0 (Herbicidal rate of 5% or less (almost no effect))
Herbicidal effect by soil treatment, J: blackgrass (blackgrass [2]; [28]): 0 (Herbicidal rate of 5% or less (almost no effect))
herbicidal effect on O: lambsquarters (evaluation grade 0-5) (lambsquarters [3]; [27]): 2 (Herbicidal rate of 20% or more and less than 40%)
herbicidal effect on Chinese sprangletop (D) (Chinese sprangletop): 3 (Herbicidal rate of 40% or more and less than 70%)
herbicidal effect on H: barnyard grass (evaluation grade 0-5) (barnyard grass [4]; [27]): 0 (Herbicidal rate of 5% or less (almost no effect))
Herbicidal effect by soil treatment, I: wild oat (wild oat [5]; [28]): 0 (Herbicidal rate of 5% or less (almost no effect))
herbicidal effect on J: blackgrass (evaluation grade 0-5) (blackgrass [6]; [27]): 0 (Herbicidal rate of 5% or less (almost no effect))
herbicidal effect on rice flat sedge (E) (rice flat sedge): 3 (Herbicidal rate of 40% or more and less than 70%)
herbicidal effect on G: green foxtail (evaluation grade 0-5) (green foxtail [7]; [27]): 0 (Herbicidal rate of 5% or less (almost no effect))
herbicidal effect on F: southern crabgrass (evaluation grade 0-5) (southern crabgrass [8]; [27]): 2 (Herbicidal rate of 20% or more and less than 40%)
Herbicidal effect by soil treatment, O: lambsquarters (lambsquarters [9]; [28]): 0 (Herbicidal rate of 5% or less (almost no effect))
Herbicidal effect by soil treatment, K: Italian ryegrass (Italian ryegrass [10]; [28]): 2 (Herbicidal rate of 20% or more and less than 40%)
Herbicidal effect by soil treatment, N: redroot pigweed (redroot pigweed [11]; [28]): 0 (Herbicidal rate of 5% or less (almost no effect))
herbicidal effect on barnyard grass (H) (barnyard grass [12]): 4 (Herbicidal rate of 70% or more and less than 90%)
Herbicidal effect by soil treatment, M: velvetleaf (velvetleaf [13]; [28]): 0 (Herbicidal rate of 5% or less (almost no effect))
Herbicidal effect by soil treatment, H: barnyard grass (barnyard grass [14]; [28]): 0 (Herbicidal rate of 5% or less (almost no effect))
Herbicidal effect by soil treatment, P: chickweed (chickweed [16]; [28]): 5 (Herbicidal rate of 90% or more (almost completely withered))
Herbicidal effect by soil treatment, F: southern crabgrass (southern crabgrass [17]; [28]): 0 (Herbicidal rate of 5% or less (almost no effect))
herbicidal effect on M: velvetleaf (evaluation grade 0-5) (velvetleaf [18]; [27]): 1 (Herbicidal rate of 5% or more and less than 20%)
herbicidal effect on K: Italian ryegrass (evaluation grade 0-5) (Italian ryegrass [19]; [27]): 3 (Herbicidal rate of 40% or more and less than 70%)
Herbicidal effect by soil treatment, L: windgrass (windgrass [23]): 0 (Herbicidal rate of 5% or less (almost no effect))
herbicidal effect on L: windgrass (evaluation grade 0-5) (windgrass [20]; [27]): 4 (Herbicidal rate of 70% or more and less than 90%)
Herbicidal effect by soil treatment, G: green foxtail (green foxtail [21]; [28]): 0 (Herbicidal rate of 5% or less (almost no effect))
herbicidal effect on P: chickweed (evaluation grade 0-5) (chickweed [24]): 5 (Herbicidal rate of 90% or more (almost completely withered))
herbicidal effect on N: redroot pigweed (evaluation grade 0-5) (redroot pigweed [25]): 3 (Herbicidal rate of 40% or more and less than 70%)
herbicidal effect on R: persian speedwell (evaluation grade 0-5) (persian speedwell [22]; [27]): 5 (Herbicidal rate of 90% or more (almost completely withered))

From US20230085307A1, “PYRIDAZINONE COMPOUND AND HERBICIDE” (NISSAN CHEMICAL CORPORATION, priority 2019, published 2023)
